{"source": "patent EP0799188B1", "about": "“AMIDES OF MONO AND DICARBOXYLIC ACIDS WITH GLYCOSAMINES, SELECTIVELY ACTIVE ON THE CANNABINOID PERIPHERAL RECEPTOR” (LIFEGROUP S.p.A., priority 1994, dated 1996)", "key": {"[1]": {"assay": "solubility in organic solvents", "type": "physicochemical", "conditions": "organic solvent or mixture, read-out: solubility in org. sol."}, "RBL-2H3 cells": {"test_system": "RBL-2H3 cells", "assay": "3H-serotonin release induced by ADNP/DNP.HSA immunogenic stimulation", "type": "cell-based, rat", "conditions": "for inhibition at 10 µM: RBL-2H3, 10µM; for effect on serotonin release (RBL cells immunogenic activation): statement in words on Table 3; for inhibition at 5 µM: RBL-2H3, read-out: 3H-serotonin net release inhibition (%), 5µM"}, "CB2 receptor": {"target": "T1, CB2 receptor (Rattus norvegicus, UniProt Q9QZN9)", "T1 construct": "30 µg membrane proteins prepared in item a); endogenous in cells; host or cells: RBL-2H3 cells (plasma membrane preparation)", "T1 sequence (Q9QZN9 1-360)": "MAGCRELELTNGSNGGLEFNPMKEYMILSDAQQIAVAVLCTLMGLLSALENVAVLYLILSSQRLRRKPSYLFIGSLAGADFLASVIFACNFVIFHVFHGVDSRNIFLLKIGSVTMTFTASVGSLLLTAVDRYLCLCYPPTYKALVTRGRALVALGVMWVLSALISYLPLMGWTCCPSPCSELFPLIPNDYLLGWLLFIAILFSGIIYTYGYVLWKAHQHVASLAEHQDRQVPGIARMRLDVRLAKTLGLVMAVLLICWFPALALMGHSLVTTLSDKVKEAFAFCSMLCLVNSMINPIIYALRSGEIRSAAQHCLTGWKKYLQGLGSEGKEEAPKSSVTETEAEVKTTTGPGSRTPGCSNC", "assay": "3H-WIN 55,212-2 binding displacement on RBL-2H3 cell membranes"}, "[2]": {"test_system": "cerebellar granule cell culture", "assay": "neuroprotective effect against glutamate-induced cell death (MTT)", "type": "cell-based, mouse", "conditions": "Mus musculus; glutamate 500 µM for 5 minutes; compound added for 10 minutes, 15 minutes after removing glutamate; MTT after 24 hours; means ± SEM; read-out: EC50"}, "[3]": {"conditions": "Rattus norvegicus, RBL-2H3, DMSO 0.2%, 100µM"}, "[4]": {"conditions": "Rattus norvegicus, RBL-2H3, DMSO 1%, 100µM"}, "[5]": {"conditions": "Rattus norvegicus, RBL-2H3, concentration inhibiting by 50% the net release of 3H serotonin, 0.2% DMSO, 15 minutes release period, means ± SEM, read-out: EC50"}, "[6]": {"conditions": "Rattus norvegicus, RBL-2H3, concentration inhibiting by 50% the net release of 3H serotonin, 1% DMSO, 15 minutes release period, means ± SEM, read-out: EC50"}, "[7]": {"conditions": "Rattus norvegicus, RBL-2H3, DMSO 0.2%"}, "[8]": {"conditions": "10µM, 0.1% DMSO and 0.1% ethanol"}, "[9]": {"conditions": "Rattus norvegicus, RBL-2H3, inhibition of 3H-serotonin release, +anandamide (12.5 µM), read-out: ED50 (the source's name)"}, "[10]": {"conditions": "Rattus norvegicus, RBL-2H3, inhibition of 3H-serotonin release, -anandamide, read-out: ED50 (the source's name)"}, "[11]": {"conditions": "competitor 10 µM, amides in 0.1% DMSO, Anandamide and Nabilone in 0.1% ethanol"}}, "note": "Where two headings read alike, the source gives them in different places.", "data": [{"smiles": "CCCCCCCCCCCC(=O)NCC(=O)O", "note": "[Example 8, N-lauroyl-glycine]", "values": [{"measurement": "water solubility", "setting": "water solubility", "value": "slightly soluble"}, {"measurement": "solubility", "setting": "water solubility; phosphate buffer, pH 7.4, aqueous buffer", "value": "> 10000", "unit": "µg/mL"}, {"measurement": "solubility", "setting": "[1]; in DMSO", "value": "> 10000", "unit": "µg/mL"}, {"measurement": "solubility", "setting": "[1]; in ethanol", "value": "> 10000", "unit": "µg/mL"}, {"measurement": "inhibition at 100 µM", "setting": "RBL-2H3 cells; [3]", "value": 93, "unit": "%"}, {"measurement": "inhibition at 100 µM", "setting": "RBL-2H3 cells; [4]", "value": 100, "unit": "%"}, {"measurement": "EC50", "setting": "RBL-2H3 cells; [5]", "value": "10 ± 1.5", "unit": "µM"}, {"measurement": "EC50", "setting": "RBL-2H3 cells; [6]", "value": "7 ± 5", "unit": "µM"}]}, {"smiles": "CCCCCCCCCCCC(=O)N[C@H]1C(O)O[C@H](CO)[C@@H](O)[C@@H]1O", "note": "(stereo partly drawn) [Example 15, N-lauroyl-D-glucosamine]", "values": [{"measurement": "water solubility", "setting": "water solubility", "value": "slightly soluble"}, {"measurement": "solubility", "setting": "[1]; in DMSO", "value": "> 5000", "unit": "µg/mL"}, {"measurement": "inhibition at 20 µM", "setting": "RBL-2H3 cells; [7]", "value": 67, "unit": "%"}, {"measurement": "inhibition at 100 µM", "setting": "RBL-2H3 cells; [4]", "value": 86, "unit": "%"}, {"measurement": "EC50", "setting": "RBL-2H3 cells; [5]", "value": 12, "unit": "µM"}]}, {"smiles": "CCCCCCCCCCCCCCCC(=O)NCCCC(=O)O", "note": "[Example 11, N-palmitoyl-gamma-aminobutyric acid]", "values": [{"measurement": "water solubility", "setting": "water solubility", "value": "slightly soluble"}, {"measurement": "solubility", "setting": "[1]; in DMSO", "value": "> 5000", "unit": "µg/mL"}, {"measurement": "solubility", "setting": "[1]; in ethanol", "value": "> 5000", "unit": "µg/mL"}, {"measurement": "EC50", "setting": "RBL-2H3 cells; [5]", "value": "26 ± 18", "unit": "µM"}]}, {"smiles": "CCCCC/C=C\\C/C=C\\C/C=C\\C/C=C\\CCCC(=O)O", "note": "[arachidonic acid, reference compound]", "values": [{"measurement": "inhibition at 12.5 µM", "setting": "RBL-2H3 cells; Rattus norvegicus, RBL-2H3, 12.5µM, -WIN, read-out: 3H-serotonin net release inhibition (%)", "value": 4, "unit": "%"}]}, {"smiles": "CCCCC/C=C\\C/C=C\\CCCCCCCC(=O)NCCO", "note": "[N-(2-hydroxyethyl)-linoleylamide, reference compound]", "values": [{"measurement": "3H-serotonin net release (%)", "setting": "RBL-2H3 cells; 100µM, 0.1% DMSO and 0.1% ethanol", "value": 100, "unit": "%"}]}, {"smiles": "CCCCCCCC/C=C\\CCCCCCCC(=O)N[C@@H](CO)C(=O)O", "note": "[Example 3, N-oleoyl-L-serine]", "values": [{"measurement": "water solubility", "setting": "water solubility", "value": "slightly soluble"}, {"measurement": "solubility", "setting": "[1]; in DMSO", "value": "> 10000", "unit": "µg/mL"}]}, {"smiles": "CCCCCCCCCCCCCCCC(=O)NCC(=O)O", "note": "[Example 7, N-palmitoyl-glycine]", "values": [{"measurement": "water solubility", "setting": "water solubility", "value": "slightly soluble"}, {"measurement": "solubility", "setting": "[1]; in DMSO", "value": "> 10000", "unit": "µg/mL"}, {"measurement": "3H-serotonin net release (%)", "setting": "RBL-2H3 cells; [8]", "value": 27, "unit": "%"}, {"measurement": "inhibition at 10 µM", "setting": "RBL-2H3 cells; Rattus norvegicus, + anandamide (12.5 µM), read-out: 3H-serotonin net release inhibition (%)", "value": 24, "unit": "%"}, {"measurement": "inhibition at 10 µM", "setting": "RBL-2H3 cells; Rattus norvegicus, -anandamide, read-out: 3H-serotonin net release inhibition (%)", "value": 73, "unit": "%"}, {"measurement": "inhibition at 60 µM", "setting": "RBL-2H3 cells; [7]", "value": 85, "unit": "%"}, {"measurement": "inhibition at 100 µM", "setting": "RBL-2H3 cells; [4]", "value": 100, "unit": "%"}, {"measurement": "EC50", "setting": "RBL-2H3 cells; [9]", "value": "> 100", "unit": "µM"}, {"measurement": "EC50", "setting": "RBL-2H3 cells; [10]", "value": 4.8, "unit": "µM"}, {"measurement": "EC50", "setting": "RBL-2H3 cells; Rattus norvegicus, RBL-2H3, inhibition of serotonin release, 0.1% DMSO and 0.1% ethanol, read-out: ED50 (µm)", "value": 4.8, "unit": "µM"}, {"measurement": "effect on serotonin release (RBL cells immunogenic activation)", "setting": "RBL-2H3 cells", "value": "can inhibit the effects induced by mast cell activation"}, {"measurement": "Displacement (%)", "setting": "CB2 receptor; [11]", "value": 79, "unit": "%"}, {"measurement": "Specific binding", "setting": "CB2 receptor; [11]", "value": 297}]}, {"smiles": "CCCCCCCCCCCC(=O)N[C@@H](CO)C(=O)O", "note": "[Example 2, N-lauroyl-L-serine]", "values": [{"measurement": "water solubility", "setting": "water solubility", "value": "slightly soluble"}, {"measurement": "solubility", "setting": "water solubility; water", "value": "> 10000", "unit": "µg/mL"}, {"measurement": "solubility", "setting": "[1]; in DMSO", "value": "> 10000", "unit": "µg/mL"}, {"measurement": "solubility", "setting": "[1]; in ethanol", "value": "> 10000", "unit": "µg/mL"}, {"measurement": "inhibition at 100 µM", "setting": "RBL-2H3 cells; [3]", "value": 79, "unit": "%"}, {"measurement": "inhibition at 100 µM", "setting": "RBL-2H3 cells; [4]", "value": 61, "unit": "%"}]}, {"smiles": "CCCCCCC(C)(C)c1cc(O)c2c(c1)OC(C)(C)C1CCC(=O)CC21", "note": "(stereo not drawn) [Nabilone, 3-(1,1-dimethylheptyl)-6,6a,7,8,10,10a-hexahydro-1-hydroxy-6,6-dimethyl-9H-dibenzo-[b,d]-pyran-9-one, reference compound]", "values": [{"measurement": "EC50", "setting": "[2]", "value": "3.9 ± 1.1", "unit": "µM"}, {"measurement": "3H-serotonin net release (%)", "setting": "RBL-2H3 cells; [8]", "value": 0, "unit": "%"}, {"measurement": "inhibition at 5 µM", "setting": "RBL-2H3 cells; Rattus norvegicus, + anandamide (12.5 µM)", "value": 50, "unit": "%"}, {"measurement": "inhibition at 5 µM", "setting": "RBL-2H3 cells; Rattus norvegicus, -anandamide", "value": 90, "unit": "%"}, {"measurement": "EC50", "setting": "RBL-2H3 cells; Rattus norvegicus, RBL-2H3, read-out: ED50 (µM), inhibition of 3H-serotonin release, +anandamide (12.5 µM)", "value": 5, "unit": "µM"}, {"measurement": "EC50", "setting": "RBL-2H3 cells; Rattus norvegicus, RBL-2H3, read-out: ED50 (µM), inhibition of 3H-serotonin release, -anandamide", "value": 2.8, "unit": "µM"}, {"measurement": "EC50", "setting": "RBL-2H3 cells; Rattus norvegicus, RBL-2H3, read-out: ED50 (µm), inhibition of serotonin release, 0.1% DMSO and 0.1% ethanol", "value": 2.8, "unit": "µM"}, {"measurement": "effect on serotonin release (RBL cells immunogenic activation)", "setting": "RBL-2H3 cells", "value": "able to inhibit, in a concentration-dependent way"}, {"measurement": "IC50", "setting": "CB2 receptor; IC50 (nM), RBL-2H3 cell membranes, 1% DMSO, means ± SEM", "value": "2.6 ± 1.4", "unit": "nM"}, {"measurement": "Displacement (%)", "setting": "CB2 receptor; [11]", "value": 100, "unit": "%"}]}, {"smiles": "O=C(O)CNC(=O)/C=C/CCCCCCCCC(=O)NCC(=O)O", "note": "[Example 13, N,N'-trans-2-dodecendioyl-diglycine]", "values": [{"measurement": "water solubility", "setting": "water solubility", "value": "slightly soluble"}, {"measurement": "solubility", "setting": "water solubility; water", "value": "> 10000", "unit": "µg/mL"}, {"measurement": "solubility", "setting": "[1]; in DMSO", "value": "> 10000", "unit": "µg/mL"}, {"measurement": "inhibition at 100 µM", "setting": "RBL-2H3 cells; [4]", "value": 54, "unit": "%"}]}, {"smiles": "CCCCCCCCCCCCCCCC(=O)N[C@@H](CS)C(=O)O", "note": "[Example 6, N-palmitoyl-L-cysteine]", "values": [{"measurement": "water solubility", "setting": "water solubility", "value": "slightly soluble"}, {"measurement": "solubility", "setting": "[1]; in DMSO", "value": "> 10000", "unit": "µg/mL"}, {"measurement": "inhibition at 60 µM", "setting": "RBL-2H3 cells; [7]", "value": 50, "unit": "%"}, {"measurement": "inhibition at 100 µM", "setting": "RBL-2H3 cells; [4]", "value": 91, "unit": "%"}, {"measurement": "EC50", "setting": "RBL-2H3 cells; [6]", "value": "29 ± 12", "unit": "µM"}]}, {"smiles": "CCCCCCCCCCCCCCCC(=O)N[C@H]1C(O)O[C@H](CO)[C@@H](O)[C@@H]1O", "note": "(stereo partly drawn) [Example 14, N-palmitoyl-D-glucosamine]", "values": [{"measurement": "water solubility", "setting": "water solubility", "value": "slightly soluble"}, {"measurement": "solubility", "setting": "[1]; in DMSO", "value": "> 1000", "unit": "µg/mL"}, {"measurement": "inhibition at 20 µM", "setting": "RBL-2H3 cells; [7]", "value": 76, "unit": "%"}, {"measurement": "inhibition at 100 µM", "setting": "RBL-2H3 cells; [4]", "value": 91, "unit": "%"}, {"measurement": "EC50", "setting": "RBL-2H3 cells; [5]", "value": "1.28 ± 0.38", "unit": "µM"}, {"measurement": "EC50", "setting": "RBL-2H3 cells; [9]", "value": 3.3, "unit": "µM"}, {"measurement": "EC50", "setting": "RBL-2H3 cells; [10]", "value": 0.51, "unit": "µM"}]}]}
